# Results as given in patent US11396522B2, “Bis-acetal-based substrates for imaging exo-glycosidase activity” (ALECTOS THERAPEUTICS INC., priority 2017, dated 2022).
# Assays:
# [1] = molecular target: T1, human Galactosylceramidase (GALC) (Homo sapiens, UniProt P54803); assay: In vitro kinetic assay with human GALC; format: biochemical; conditions: 5 nM recombinant human GALC
# T1 construct: purchased R&D systems
# T1 sequence (P54803 43-685): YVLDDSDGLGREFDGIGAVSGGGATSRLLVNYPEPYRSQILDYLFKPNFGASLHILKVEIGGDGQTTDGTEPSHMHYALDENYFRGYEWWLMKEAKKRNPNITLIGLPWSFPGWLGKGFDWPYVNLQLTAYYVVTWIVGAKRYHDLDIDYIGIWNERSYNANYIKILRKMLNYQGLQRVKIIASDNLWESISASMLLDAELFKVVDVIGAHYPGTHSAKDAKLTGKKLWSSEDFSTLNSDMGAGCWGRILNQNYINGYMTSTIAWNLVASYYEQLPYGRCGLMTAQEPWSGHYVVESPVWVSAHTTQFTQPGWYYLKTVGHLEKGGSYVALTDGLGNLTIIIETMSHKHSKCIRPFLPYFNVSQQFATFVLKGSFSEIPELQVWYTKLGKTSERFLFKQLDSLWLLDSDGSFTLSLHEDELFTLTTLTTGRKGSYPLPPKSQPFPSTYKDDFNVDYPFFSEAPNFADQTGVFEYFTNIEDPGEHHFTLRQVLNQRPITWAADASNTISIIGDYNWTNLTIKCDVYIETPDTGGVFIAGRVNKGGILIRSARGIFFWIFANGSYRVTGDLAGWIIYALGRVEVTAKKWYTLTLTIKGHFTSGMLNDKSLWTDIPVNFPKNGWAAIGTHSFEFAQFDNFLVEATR
# Description: (§1) For some experiments, fluorescence kinetic assays were performed using a Varian Cary Eclipse Spectrophotometer set for 335/493 nm excitation/emission wavelengths. Slits were set at 10 nm and the detector was set on Medium voltage. Enzymatic reactions with human OGA were carried out in PBS at 37° C. and were started by addition of hOGA (WT, Full-length, expressed in E. coli. as previously described) in a total volume of 160 μL (Starna sub-micro Fluorometer cuvette). For measurements of rates using different concentrations of substrates, a hOGA concentration of 100 nM was used. For hOGA titration, 25 μM of Glyco-BABS were added to various concentration of hOGA. […] EDANS standard curve was established using endpoint fluorescence measurements of serial dilutions of EDANS in the relevant buffer using the same instrument parameters. Inner-Filter effect measurements were carried out in cuvette by measuring fluorescence of several concentrations of EDANS in presence of various concentrations of GlcNAc-BABS. Kinetics with Glc-BABS and GBA enzymes (GBA1 and GBA3 purchased from R&D Systems), kinetics with GALC (R&D systems) and Gal-BABS, pH stability, quenching efficiency, some inner-filter effect experiments and lysates experiments were carried out using a Molecular Devices SpectraMax i3× plate reader. […]
# [2] = pH stability of Glyco-BABS; format: physicochemical; conditions: 5 μM, up to 72 h, pH 2 to 10
# From the text: One concern with the Glyco-BABS design was the known lability of acetals under acidic conditions that has been exploited in pH-sensitive prodrugs or linkers for drug delivery.^41,42 However, we recognized that carbohydrate anomeric acetals are chemically distinct from regular acetals. Due to stabilization by the endocyclic oxygen, we expected these bis-acetals would show stability across a range of physiological pH values. We therefore assessed the stability of the bis-acetal motif toward acid and base hydrolysis (FIG. 8). To do so, we tested the pH stability of 5 μM of GlcNAc-Br-BABS 1, GlcNAc-OH-BABS 2, Glc-OH-BABS 6 and Glc-H-BABS 7 at different pH over time. We prepared solutions at various pH by mixing 0.2 M KCl+0.1 M HCl with 0.2 M KCl+0.1 M KOH. Fluorescence of EDANS and Glyco-BABS solutions (5 μM, 45 μL) at different pH was measured at different time points in Nunc 384-well plates using a SpectraMax i3× plate reader. Data (triplicates) support the highly efficient quenching and the stability of these substrates over a wide range of pH.
# GBA1 = molecular target: T2, GBA1 (Homo sapiens, UniProt P04062); assay: In vitro kinetic assay with GBA1; format: biochemical; set-up: purchased R&D Systems; conditions: GBA enzymes at 50 nM
# T2 sequence (P04062 40-536): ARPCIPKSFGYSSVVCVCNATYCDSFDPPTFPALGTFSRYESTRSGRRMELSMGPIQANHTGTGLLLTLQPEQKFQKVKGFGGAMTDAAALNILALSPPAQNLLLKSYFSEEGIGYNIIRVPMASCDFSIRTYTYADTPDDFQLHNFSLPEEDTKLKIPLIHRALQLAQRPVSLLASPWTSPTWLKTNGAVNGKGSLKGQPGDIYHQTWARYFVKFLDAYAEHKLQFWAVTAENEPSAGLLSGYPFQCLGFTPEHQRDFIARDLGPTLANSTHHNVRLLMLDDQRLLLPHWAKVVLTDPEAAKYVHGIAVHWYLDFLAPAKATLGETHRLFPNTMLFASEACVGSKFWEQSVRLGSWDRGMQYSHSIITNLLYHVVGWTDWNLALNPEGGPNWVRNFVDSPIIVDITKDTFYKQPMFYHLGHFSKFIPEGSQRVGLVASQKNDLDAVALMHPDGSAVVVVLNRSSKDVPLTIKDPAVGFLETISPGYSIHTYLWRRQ
# Description: as §1
turnover by human GALC [1],pH stability (increase of fluorescence) [2],turnover by GBA1 (GBA1),SMILES
turned over,,,"CN(C)c1ccc(/N=N/c2ccc(C(=O)NCc3cn(CCOCCO[C@H](O[C@@H]4O[C@H](CO)[C@H](O)[C@H](O)[C@H]4O)[C@@](C)(O)C(=O)NCCNc4cccc5c(S(=O)(=O)O)cccc45)nn3)cc2)cc1 [Compound 5, 5-((2-((2R,3R)-3-(2-(2-(4-((4-((E)-(4-(dimethylamino)phenyl)diazenyl)benzamido)methyl)-1H-1,2,3-triazol-1-yl)ethoxy)ethoxy)-2-hydroxy-2-methyl-3-(((2S,3R,4S,5R,6R)-3,4,5-trihydroxy-6-(hydroxymethyl)tetrahydro-2H-pyran-2-yl)oxy)propanamido)ethyl)amino)naphthalene-1-sulfonic Acid]"
,no significant increase of fluorescence,turned over by GBA1 only,"CN(C)c1ccc(/N=N/c2ccc(C(=O)NCc3cn(CCOCCOC(CC(=O)NCCNc4cccc5c(S(=O)(=O)O)cccc45)O[C@@H]4O[C@H](CO)[C@@H](O)[C@H](O)[C@H]4O)nn3)cc2)cc1 (stereo partly drawn) [Compound 7, 5-((2-(3-(2-(2-(4-((4-((E)-(4-(dimethylamino)phenyl)diazenyl)benzamido)methyl)-1H-1,2,3-triazol-1-yl)ethoxy)ethoxy)-3-(((2S,3R,4S,5S,6R)-3,4,5-trihydroxy-6-(hydroxymethyl)tetrahydro-2H-pyran-2-yl)oxy)propanamido)ethyl)amino)naphthalene-1-sulfonic Acid]"
turned over,,,"CN(C)c1ccc(/N=N/c2ccc(C(=O)NCc3cn(CCOCCO[C@H](O[C@@H]4O[C@H](CO)[C@H](O)[C@H](O)[C@H]4O)[C@@](C)(Br)C(=O)NCCNc4cccc5c(S(=O)(=O)O)cccc45)nn3)cc2)cc1 [Compound 4, 5-((2-((2R,3R)-2-bromo-3-(2-(2-(4-((4-((E)-(4-(dimethylamino)phenyl)diazenyl)benzamido)methyl)-1H-1,2,3-triazol-1-yl)ethoxy)ethoxy)-2-methyl-3-(((2S,3R,4S,5R,6R)-3,4,5-trihydroxy-6-(hydroxymethyl)tetrahydro-2H-pyran-2-yl)oxy)propanamido)ethyl)amino)naphthalene-1-sulfonic Acid]"
